Patent US11021493B2, “1,4-thiazine dioxide and 1,2,4-thiadiazine dioxide derivatives as beta-secretase inhibitors and methods of use” (AMGEN INC., priority 2016, dated 2021)

Tests used:
[1] = target: Cathepsin D (CatD) (Homo sapiens (Human), UniProt P07339); assay: In vitro enzymatic Cathepsin D (CatD) FRET assay; type: biochemical; conditions: read-out: Cat D Enzyme IC50
[2] = target: human recombinant BACE2 (Homo sapiens (Human), UniProt Q9Y5Z0); assay: In vitro enzymatic BACE2 FRET assay; type: biochemical; conditions: read-out: BACE2 Enzyme IC50
human recombinant BACE2, sequence (Q9Y5Z0 63-518): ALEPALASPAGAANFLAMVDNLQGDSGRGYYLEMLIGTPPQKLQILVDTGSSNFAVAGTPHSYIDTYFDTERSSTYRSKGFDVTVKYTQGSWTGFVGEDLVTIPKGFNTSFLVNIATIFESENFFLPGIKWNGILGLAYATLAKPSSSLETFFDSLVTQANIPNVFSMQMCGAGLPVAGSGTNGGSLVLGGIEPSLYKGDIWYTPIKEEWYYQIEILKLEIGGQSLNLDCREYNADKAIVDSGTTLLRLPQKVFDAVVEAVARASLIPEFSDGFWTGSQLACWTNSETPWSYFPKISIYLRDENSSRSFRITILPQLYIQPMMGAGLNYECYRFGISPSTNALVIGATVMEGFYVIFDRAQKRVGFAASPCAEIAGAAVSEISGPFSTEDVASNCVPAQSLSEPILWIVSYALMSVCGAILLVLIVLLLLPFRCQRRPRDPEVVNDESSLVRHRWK

[3] = target: T1, BACE1 (Homo sapiens (Human), UniProt P56817); assay: In vitro BACE1 cell-based assay (Aβ40 in conditioned medium of cells stably expressing APP, HTRF); conditions: Aβ40 in conditioned media after 24 h incubation
Target sequence in this assay (P56817 46-501, species assumed): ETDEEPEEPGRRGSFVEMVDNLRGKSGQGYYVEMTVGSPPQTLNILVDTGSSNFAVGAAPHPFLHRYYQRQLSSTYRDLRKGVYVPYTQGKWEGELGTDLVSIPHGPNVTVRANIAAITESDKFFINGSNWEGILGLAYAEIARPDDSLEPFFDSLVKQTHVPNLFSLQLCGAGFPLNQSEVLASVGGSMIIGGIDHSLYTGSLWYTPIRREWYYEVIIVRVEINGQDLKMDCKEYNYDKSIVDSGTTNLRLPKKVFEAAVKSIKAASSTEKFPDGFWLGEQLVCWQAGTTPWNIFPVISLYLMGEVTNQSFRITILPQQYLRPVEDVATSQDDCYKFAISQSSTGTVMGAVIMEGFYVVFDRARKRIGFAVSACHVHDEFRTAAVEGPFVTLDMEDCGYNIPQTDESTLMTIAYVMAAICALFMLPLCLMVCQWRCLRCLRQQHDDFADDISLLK

[4] = target: T1, BACE1; assay: In vitro enzymatic BACE1 FRET assay; type: biochemical; conditions: read-out: BACE1 Enzyme IC50
Target sequence in this assay (P56817 46-501): as the sequence (P56817 46-501, species assumed) above

[5] = target: β-secretase (Rattus norvegicus (Rat), UniProt P56819); assay: In vivo inhibition of β-secretase: Aβ reduction in rat CSF and brain
β-secretase, sequence (P56819 46-501): as the sequence (P56817 46-501, species assumed) above, with G82S, V162I, L165I, S180T, V182A, I340V, L393A, Q443H counted along it
Method: In Vivo Inhibition of β-Secretase
Animals to be used in this experiment can be wild type, transgenic, or gene knockout animals.
A separate group of animals receive 2% hydroxypropyl methylcellulose, 1% Tween80 alone, containing no test compound, and serve as a vehicle-control group. At the end of the test period, animals are sacrificed and brain tissues, plasma or cerebrospinal fluid are collected. […] Homogenates are centrifuged at 355,000 g, 4° C. for 30 minutes. CSF or brain supernatants are then analyzed for the presence of Aβ by specific sandwich ELISA assays based on ECL (Electrochemiluminescence) technology. For example, rat Aβ40 is measured using biotinylated-4G8 (Signet) as a capture antibody and Fab40 (an in-house antibody specific to the C-terminal of Aβ40) as a detection antibody.

[6] = cited from earlier work
[7] = tested on: BACE; conditions: nonhuman primates; cited from earlier work
[8] = higher compound dose given for three months; cited from earlier work

Cathepsin D (CatD), sequence (P07339 65-412, species assumed): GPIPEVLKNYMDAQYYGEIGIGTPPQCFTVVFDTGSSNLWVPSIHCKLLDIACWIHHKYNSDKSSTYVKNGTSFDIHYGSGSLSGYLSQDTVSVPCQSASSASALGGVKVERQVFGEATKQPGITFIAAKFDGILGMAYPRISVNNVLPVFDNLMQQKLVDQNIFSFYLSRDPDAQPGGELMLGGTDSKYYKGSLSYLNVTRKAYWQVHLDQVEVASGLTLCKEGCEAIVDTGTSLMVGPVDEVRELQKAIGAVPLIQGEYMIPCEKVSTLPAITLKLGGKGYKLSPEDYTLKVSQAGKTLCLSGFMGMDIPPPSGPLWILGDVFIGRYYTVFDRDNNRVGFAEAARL

SMILES: CN1C(N)=N[C@](C)(c2cc(/C=C(\F)c3ccc(C#N)cn3)ccc2F)C2(CC2)S1(=O)=O [Example 127, (R,Z)-6-(2-(3-(6-amino-5,8-dimethyl-4,4-dioxido-4-thia-5,7-diazaspiro[2.5]oct-6-en-8-yl)-4-fluorophenyl)-1-fluorovinyl)nicotinonitrile]
- IC50 [1]: 129 µM
- IC50 [2]: 175 nM
- IC50 [3]: 8 nM
- IC50 [4]: 6 nM
- % Aβ reduction in rat CSF at 10 mpk [5]: 64%
- % Aβ reduction in rat brain at 10 mpk [5]: 70%

SMILES: C#C[C@H](C)Oc1cnc(/C(F)=C/c2ccc(F)c([C@@]3(C)N=C(N)[C@@]4(CF)CC[C@@H]3S4(=O)=O)c2)cn1 [Example 128, (1R,4R,5S)-2-amino-4-(5-((Z)-2-(5-((S)-but-3-yn-2-yloxy)pyrazin-2-yl)-2-fluorovinyl)-2-fluorophenyl)-1-(fluoromethyl)-4-methyl-8-thia-3-azabicyclo[3.2.1]oct-2-ene 8,8-dioxide]
- IC50 [1]: 125 µM
- IC50 [2]: 147 nM
- IC50 [3]: 18 nM
- IC50 [4]: 4 nM
- % Aβ reduction in rat CSF at 10 mpk [5]: 33%
- % Aβ reduction in rat brain at 10 mpk [5]: 35%

SMILES: Cc1noc(COc2cnc(/C(F)=C/c3ccc(F)c([C@]4(C)CS(=O)(=O)N(C)C(N)=N4)c3)cn2)n1 [Example 146, (R,Z)-3-amino-5-(2-fluoro-5-(2-fluoro-2-(5-((3-methyl-1,2,4-oxadiazol-5-yl)methoxy)pyrazin-2-yl)vinyl)phenyl)-2,5-dimethyl-5,6-dihydro-2H-1,2,4-thiadiazine 1,1-dioxide]
- IC50 [1]: 151 µM
- IC50 [2]: 97 nM
- IC50 [3]: 6 nM
- IC50 [4]: 3 nM
- % Aβ reduction in rat CSF at 10 mpk [5]: 12%
- % Aβ reduction in rat brain at 10 mpk [5]: 16%

SMILES: C#C[C@H](C)Oc1cnc(/C(F)=C/c2ccc(F)c([C@]3(C)CS(=O)(=O)C(C)(C)C(N)=N3)c2)cn1 [Example 160, (R)-5-amino-3-(5-((Z)-2-(5-((S)-but-3-yn-2-yloxy)pyrazin-2-yl)-2-fluorovinyl)-2-fluorophenyl)-3,6,6-trimethyl-3,6-dihydro-2H-1,4-thiazine 1,1-dioxide]
- IC50 [1]: 207 µM
- IC50 [2]: 120 nM
- IC50 [3]: 5 nM
- IC50 [4]: 1 nM
- % Aβ reduction in rat CSF at 10 mpk [5]: 52%
- % Aβ reduction in rat brain at 10 mpk [5]: 34%

SMILES: CN1C(N)=N[C@](C)(c2cc(/C=C(\F)c3cnc(OCc4ncco4)cn3)cc(F)c2F)CS1(=O)=O [Example 166, (R,Z)-3-amino-5-(2,3-difluoro-5-(2-fluoro-2-(5-(oxazol-2-ylmethoxy)pyrazin-2-yl)vinyl)phenyl)-2,5-dimethyl-5,6-dihydro-2H-1,2,4-thiadiazine 1,1-dioxide]
- IC50 [1]: 40.9 µM
- IC50 [2]: 90 nM
- IC50 [3]: 4 nM
- IC50 [4]: 4 nM
- % Aβ reduction in rat CSF at 10 mpk [5]: 45%
- % Aβ reduction in rat brain at 10 mpk [5]: 26%

SMILES: C#C[C@H](C)Oc1cnc(/C(F)=C/c2ccc(F)c([C@@]3(C)N=C(N)N(C)S(=O)(=O)C3(C)C)c2)cn1 [Example 186, (R)-3-amino-5-(5-((Z)-2-(5-((S)-but-3-yn-2-yloxy)pyrazin-2-yl)-2-fluorovinyl)-2-fluorophenyl)-2,5,6,6-tetramethyl-5,6-dihydro-2H-1,2,4-thiadiazine 1,1-dioxide]
- IC50 [1]: 375 µM
- IC50 [2]: 451 nM
- IC50 [3]: 24 nM
- IC50 [4]: 5 nM
- % Aβ reduction in rat CSF at 10 mpk [5]: 19%
- % Aβ reduction in rat brain at 10 mpk [5]: 43%

SMILES: CC#C[C@H](CC)Oc1cnc(/C(F)=C/c2ccc(F)c([C@]3(C)CS(=O)(=O)C(C)(C)C(N)=N3)c2)cn1 [Example 199, (R)-5-amino-3-(2-fluoro-5-((Z)-2-fluoro-2-(5-((S)-hex-4-yn-3-yloxy)pyrazin-2-yl)vinyl)phenyl)-3,6,6-trimethyl-3,6-dihydro-2H-1,4-thiazine 1,1-dioxide]
- % Aβ reduction in rat CSF at 10 mpk [5]: 43%
- % Aβ reduction in rat brain at 10 mpk [5]: 58%

SMILES: C#CCOc1cnc(/C(F)=C/c2cc(F)c(F)c([C@]3(C)CS(=O)(=O)C(C)(C)C(N)=N3)c2)cn1 [Example 204, (R,Z)-5-amino-3-(2,3-difluoro-5-(2-fluoro-2-(5-(prop-2-yn-1-yloxy)pyrazin-2-yl)vinyl)phenyl)-3,6,6-trimethyl-3,6-dihydro-2H-1,4-thiazine 1,1-dioxide]
- IC50 [1]: 42.7 µM
- IC50 [2]: 179 nM
- IC50 [3]: 9 nM
- IC50 [4]: 5 nM
- % Aβ reduction in rat CSF at 10 mpk [5]: 65%
- % Aβ reduction in rat brain at 10 mpk [5]: 61%

SMILES: C#CCOc1cnc(/C(F)=C/c2cnc(F)c([C@]3(C)CS(=O)(=O)C(C)(C)C(N)=N3)c2)cn1 [Example 205, (R,Z)-5-amino-3-(2-fluoro-5-(2-fluoro-2-(5-(prop-2-yn-1-yloxy)pyrazin-2-yl)vinyl)pyridin-3-yl)-3,6,6-trimethyl-3,6-dihydro-2H-1,4-thiazine 1,1-dioxide]
- IC50 [1]: 244 µM
- IC50 [2]: 129 nM
- IC50 [3]: 7 nM
- IC50 [4]: 5 nM
- % Aβ reduction in rat CSF at 10 mpk [5]: 68%
- % Aβ reduction in rat brain at 10 mpk [5]: 65%

SMILES: CC1(C)C(N)=N[C@@]2(c3ccc(/C=C(\F)c4ccc(C#N)cn4)cc3F)COC[C@H]2S1(=O)=O [Example 261, 6-((Z)-2-(4-((4aS,7aS)-3-amino-2,2-dimethyl-1,1-dioxido-4a,5,7,7a-tetrahydro-2H-furo[3,4-b][1,4]thiazin-4a-yl)-3-fluorophenyl)-1-fluorovinyl)nicotinonitrile]
- IC50 [1]: 178 µM
- IC50 [2]: 12 nM
- IC50 [3]: 34 nM
- IC50 [4]: 2 nM
- % Aβ reduction in rat CSF at 10 mpk [5]: 69%
- % Aβ reduction in rat brain at 10 mpk [5]: 60%

SMILES: CN1C(N)=N[C@](C)(c2cc(/C=C(\F)c3ncc(C#N)cc3Cl)ccc2F)CS1(=O)=O [Example 269, (R,Z)-6-(2-(3-(3-amino-2,5-dimethyl-1,1-dioxido-5,6-dihydro-2H-1,2,4-thiadiazin-5-yl)-4-fluorophenyl)-1-fluorovinyl)-5-chloronicotinonitrile]
- IC50 [1]: 119 µM
- IC50 [2]: 3 nM
- IC50 [3]: 4 nM
- IC50 [4]: 2 nM

SMILES: CN1C(N)=N[C@](C)(c2cc(/C=C(\F)c3ccc(F)cn3)cc(F)c2F)CS1(=O)=O [Example 270, (R,Z)-3-amino-5-(2,3-difluoro-5-(2-fluoro-2-(5-fluoropyridin-2-yl)vinyl)phenyl)-2,5-dimethyl-5,6-dihydro-2H-1,2,4-thiadiazine 1,1-dioxide]
- IC50 [1]: 265 µM
- IC50 [2]: 28 nM
- IC50 [3]: 138 nM
- IC50 [4]: 75 nM

SMILES: CN1C(N)=N[C@](C)(c2cc(/C=C(\F)c3ccc(C(F)(F)F)cn3)cc(F)c2F)CS1(=O)=O [Example 273, (R,Z)-3-amino-5-(2,3-difluoro-5-(2-fluoro-2-(5-(trifluoromethyl)pyridin-2-yl)vinyl)phenyl)-2,5-dimethyl-5,6-dihydro-2H-1,2,4-thiadiazine 1,1-dioxide]
- IC50 [1]: 76.2 µM
- IC50 [2]: 46 nM
- IC50 [3]: 13 nM
- IC50 [4]: 7 nM

SMILES: Cc1cc(C#N)cnc1/C(F)=C/c1ccc(F)c([C@]2(C)CS(=O)(=O)C(C)(C)C(N)=N2)c1 [Example 274, (R,Z)-6-(2-(3-(5-amino-3,6,6-trimethyl-1,1-dioxido-3,6-dihydro-2H-1,4-thiazin-3-yl)-4-fluorophenyl)-1-fluorovinyl)-5-methylnicotinonitrile]
- IC50 [1]: 122 µM
- IC50 [2]: 28 nM
- IC50 [3]: 51 nM
- IC50 [4]: 6 nM

SMILES: Cc1cc(C#N)cnc1/C(F)=C/c1cc(F)c(F)c([C@]2(C)CS(=O)(=O)N(C)C(N)=N2)c1 [Example 275, (R,Z)-6-(2-(3-(3-amino-2,5-dimethyl-1,1-dioxido-5,6-dihydro-2H-1,2,4-thiadiazin-5-yl)-4,5-difluorophenyl)-1-fluorovinyl)-5-methylnicotinonitrile]
- IC50 [1]: 55.9 µM
- IC50 [2]: 9 nM
- IC50 [3]: 14 nM
- IC50 [4]: 1 nM

SMILES: CN1C(N)=N[C@](C)(c2cc(/C=C(\F)c3ncc(C#N)cc3Cl)cc(F)c2F)CS1(=O)=O [Example 276, (R,Z)-6-(2-(3-(3-amino-2,5-dimethyl-1,1-dioxido-5,6-dihydro-2H-1,2,4-thiadiazin-5-yl)-4,5-difluorophenyl)-1-fluorovinyl)-5-chloronicotinonitrile]
- IC50 [1]: 58 µM
- IC50 [2]: 6 nM
- IC50 [3]: 17 nM
- IC50 [4]: 2 nM

SMILES: CC1(C)C(N)=N[C@](C)(c2cc(/C=C/c3ccc(Cl)cc3)ccc2F)CS1(=O)=O [Example 279, (R,E)-5-amino-3-(5-(4-chlorostyryl)-2-fluorophenyl)-3,6,6-trimethyl-3,6-dihydro-2H-1,4-thiazine 1,1-dioxide]
- IC50 [1]: 39.3 µM
- IC50 [2]: 56 nM
- IC50 [3]: 442 nM
- IC50 [4]: 56 nM

SMILES: C[C@H]1OC[C@]2(c3cc(NC(=O)c4cnc(C(F)F)cn4)ccc3F)N=C(N)SC[C@H]12 [Example E2609]
- clinical safety ([6]; repeated doses up to 200 mg, phase I clinical trial): did not show clinical significant safety concerns
- Aβ peptide levels in the CSF and plasma [7]: significant reduction

SMILES: C[C@@]1(c2cc(-c3cncnc3)c(F)cc2F)CCSC(N)=N1 [LY 2811376]
- eye toxicity [8]: damaged the pigment epithelium of the rat's eye

SMILES: CN1C(=N)N[C@](C)(c2cc(NC(=O)c3ccc(F)cn3)ccc2F)CS1(=O)=O [MK-8931]
- safety profile ([6]; phase I clinical trials): no immediately noticeable side effects
